The target in this test is T1, CHK1 kinase (Homo sapiens, UniProt O14757).
T1 construct: glutathione S-transferase (GST); made in house; host or cells: Sf21 insect cells (S. frugiperda), baculovirus
T1 sequence (O14757 1-476): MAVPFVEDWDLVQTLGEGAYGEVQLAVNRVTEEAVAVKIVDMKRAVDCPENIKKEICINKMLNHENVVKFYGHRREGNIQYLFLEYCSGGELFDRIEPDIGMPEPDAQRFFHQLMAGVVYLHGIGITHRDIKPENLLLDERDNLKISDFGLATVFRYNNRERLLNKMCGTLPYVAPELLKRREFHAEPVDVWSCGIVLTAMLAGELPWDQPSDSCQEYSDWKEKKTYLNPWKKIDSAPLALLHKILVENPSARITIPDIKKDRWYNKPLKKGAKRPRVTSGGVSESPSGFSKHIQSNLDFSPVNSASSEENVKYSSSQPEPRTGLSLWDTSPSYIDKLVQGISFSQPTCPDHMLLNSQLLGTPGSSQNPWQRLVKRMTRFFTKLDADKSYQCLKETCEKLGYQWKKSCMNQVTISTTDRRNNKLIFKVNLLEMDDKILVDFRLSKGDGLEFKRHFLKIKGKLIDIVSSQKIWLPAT
Nature of the test: Flashplate method (CHK1), measurement of the CHK1 kinase activity. It counts as biochemical. The conditions noted are these: class symbols; 'Affinity to receptors'. In outline: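 GST-tagged CHK1 expressed in Sf21 insect cells, incubated at 30 °C with biotinylated CHKtide (0.15 μg per well) and γ33P-ATP in pH 7.5 buffer (EGTA, Mg acetate, mercaptoethanol, 0.1% BSA). Stopped with EDTA, captured on streptavidin Flashplates and counted by scintillation. IC50 set against uninhibited reaction and 0.1 μM staurosporine as zero.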
With `O=c1c(NCc2cc(F)c(F)c(O)c2F)c(Nc2ccc3[nH]cnc3c2)c1=O` [Compound A78, 3-(1H-benzimidazol-5-ylamino)-4-(2,4,5-trifluoro-3-hydroxybenzylamino)cyclobut-3-ene-1,2-dione], the IC50 was greater than 1000 nM. In the case of “3-(1H-benzimidazol-5-ylamino)-4-[(S)-1-(3-hydroxyphenyl)ethylamino]cyclobut-3-ene-1,2-dione [Compound A4]”, the concentration for half-maximal inhibition (IC50) was greater than 1000 nM. With `CC[C@@H](Nc1c(Nc2ccc3[nH]cnc3c2)c(=O)c1=O)c1cccc(OC)c1` [Compound A114, 3-(1H-benzimidazol-5-ylamino)-4-[(R)-1-(3-methoxyphenyl)propylamino]cyclobut-3-ene-1,2-dione], the 50% inhibitory concentration (IC50) was greater than 1000 nM.

Turning to `O=c1c(NCc2cccc(O)c2)c(Nc2ccc3[nH]c(S)nc3c2)c1=O` [Compound A40, 3-(2-mercapto-1H-benzimidazol-5-ylamino)-4-(3-hydroxybenzylamino)cyclobut-3-ene-1,2-dione], the concentration for half-maximal inhibition (IC50) was greater than 1000 nM. In the case of `O=c1c(NCc2cccc3[nH]ccc23)c(Nc2ccc3[nH]cnc3c2)c1=O` [Compound A135, 3-(1H-benzimidazol-5-ylamino)-4-[(1H-indol-4-ylmethyl)amino]cyclobut-3-ene-1,2-dione] it was greater than 1000 nM; in that of `CCOc1cccc(CNc2c(Nc3ccc4[nH]cnc4c3)c(=O)c2=O)c1` [Compound A104, 3-(1H-benzimidazol-5-ylamino)-4-(3-ethoxy-benzylamino)cyclobut-3-ene-1,2-dione], greater than 1000 nM. Turning to `O=c1c(NCc2ccc(F)c(O)c2)c(Nc2ccc3[nH]cnc3c2)c1=O` [Compound A84, 3-(1H-benzimidazol-5-ylamino)-4-(4-fluoro-3-hydroxybenzylamino)cyclobut-3-ene-1,2-dione], the 50% inhibitory concentration (IC50) is less than 1000 nM. Molecule `O=c1c(NCc2cccc(OCCO)c2)c(Nc2ccc3[nH]cnc3c2)c1=O` [Compound A107, 3-(1H-benzimidazol-5-ylamino)-4-[3-(2-hydroxyethoxy)benzylamino]cyclobut-3-ene-1,2-dione] yielded an IC50 greater than 1000 nM. Turning to `O=c1c(NCc2ccc3[nH]cc(-c4ccncc4)c3c2)c(Nc2ccc3[nH]cnc3c2)c1=O` [Compound A102, 3-(1H-benzimidazol-5-ylamino)-4-[(3-pyridin-4-yl-1H-indol-5-ylmethyl)amino]cyclobut-3-ene-1,2-dione], the concentration for half-maximal inhibition (IC50) was greater than 1000 nM.

For the molecule `CNS(=O)(=O)c1ccc(CN(C)c2c(Nc3ccc4[nH]cnc4c3)c(=O)c2=O)cc1` [Compound A153, 3-(1H-benzimidazol-5-ylamino)-4-[4-(N-methylaminosulfonyl)benzyl-N-methylamino]-cyclobut-3-ene-1,2-dione], the IC50 was greater than 1000 nM. In the case of `O=c1c(NCc2cccc(O)c2)c(Nc2ccc3c(c2)NCC3)c1=O` [Compound A42, 3-(2,3-dihydro-1 H-indol-6-ylamino)-4-(3-hydroxybenzylamino)cyclobut-3-ene-1,2-dione] it was greater than 1000 nM; in that of `CN(C)CCOc1cccc(CNc2c(Nc3ccc4[nH]cnc4c3)c(=O)c2=O)c1` [Compound A108, 3-(1H-benzimidazol-5-ylamino)-4-[3-(2-di-methylaminoethoxy)benzylamino]cyclobut-3-ene-1,2-dione], greater than 1000 nM. For `O=c1c(NCc2ccc3[nH]cnc3c2)c(Nc2ccc3[nH]cnc3c2)c1=O` [Compound A88, 3-(1H-benzimidazol-5-ylamino)-4-[(1H-benzimidazol-5-ylmethyl)amino]cyclobut-3-ene-1,2-dione] the value was greater than 1000 nM; for `CN(C)Cc1c[nH]c2cc(CNc3c(Nc4ccc5[nH]cnc5c4)c(=O)c3=O)ccc12` [Compound A96, 3-(1H-benzimidazol-5-ylamino)-4-[(3-dimethylaminomethyl-1H-indol-6-ylmethyl)-amino]cyclobut-3-ene-1,2-dione], greater than 1000 nM. In the case of `O=c1c(NCc2ccc(O)c(O)c2)c(Nc2ccc3[nH]cnc3c2)c1=O` [Compound A87, 3-(1H-benzimidazol-5-ylamino)-4-(3,4-di-hydroxybenzylamino)cyclobut-3-ene-1,2-dione] it was less than 1000 nM; in that of `O=c1c(NCc2cccc(O)c2)c(Nc2ccc3ncsc3c2)c1=O` [Compound A14, 3-(benzothiazol-6-ylamino)-4-(3-hydroxy-benzylamino)cyclobut-3-ene-1,2-dione], less than 1000 nM; in that of `O=c1c(NCc2cccc(C(F)(F)F)c2)c(Nc2ccc3[nH]cnc3c2)c1=O` [Compound A37, 3-(1H-benzimidazol-5-ylamino)-4-(3-trifluoro-methylbenzylamino)cyclobut-3-ene-1,2-dione], greater than 1000 nM. Molecule `O=c1c(NCc2ccc3[nH]c(C(F)(F)F)nc3c2)c(Nc2ccc3[nH]cnc3c2)c1=O` [Compound A90, 3-(1H-benzimidazol-5-ylamino)-4-[(2-trifluoromethyl-1H-benzimidazol-5-ylmethyl)-amino]cyclobut-3-ene-1,2-dione] returned an IC50 greater than 1000 nM. `O=CNc1cccc(CNc2c(Nc3ccc4[nH]cnc4c3)c(=O)c2=O)c1` [Compound A134, 3-(1H-benzimidazol-5-ylamino)-4-(3-formyl-aminobenzylamino)cyclobut-3-ene-1,2-dione] gave an IC50 greater than 1000 nM. Take `CC(C)(C)NS(=O)(=O)c1cccc(CNc2c(Nc3ccc4[nH]cnc4c3)c(=O)c2=O)c1` [Compound A41, 3-(1H-benzimidazol-5-ylamino)-4-[3-(tert-butylaminosulfonyl)benzylamino]cyclobut-3-ene-1,2-dione]: the IC50 is greater than 1000 nM. In the case of `CS(=O)(=O)Nc1ccc(CNc2c(Nc3ccc4[nH]cnc4c3)c(=O)c2=O)cc1` [Compound A156, 3-(1H-benzimidazol-5-ylamino)-4-(4-methyl-sulfonylaminobenzylamino)cyclobut-3-ene-1,2-dione] it was greater than 1000 nM; in that of `O=c1cnc2ccc(CNc3c(Nc4ccc5[nH]cnc5c4)c(=O)c3=O)cc2[nH]1` [Compound A163, 3-(1H-benzimidazol-5-ylamino)-4-[(3-oxo-3,4-dihydroquinoxalin-6-ylmethyl)amino]cyclobut-3-ene-1,2-dione], greater than 1000 nM. As to `CS(=O)(=O)NCCOc1cccc(CNc2c(Nc3ccc4[nH]cnc4c3)c(=O)c2=O)c1` [Compound A110, 3-(1H-benzimidazol-5-ylamino)-4-[3-(2-methylsulfonylaminoethoxy)benzylamino]-cyclobut-3-ene-1,2-dione], the IC50 is greater than 1000 nM. Take “3-(8-bromoimidazo[1,2-a]pyridin-6-ylamino)-4-[(R)-1-(3-methoxyphenyl)ethylamino]-cyclobut-3-ene-1,2-dione [Compound A63]”: the IC50 was greater than 1000 nM. As for `COCCn1cnc2cc(Nc3c(N[C@H](C)c4cccc(O)c4)c(=O)c3=O)ccc21` [Compound A74, 3-[(R)-1-(3-hydroxyphenyl)ethylamino]-4-[1-(2-methoxyethyl)-1H-benzimidazol-5-yl-amino]cyclobut-3-ene-1,2-dione], the half-inhibitory concentration (IC50) was greater than 1000 nM. In the case of `CCN(CC)CCn1cnc2ccc(Nc3c(N[C@H](C)c4cccc(OC)c4)c(=O)c3=O)cc21` [Compound A65, 3-[3-(2-diethylaminoethyl)-3H-benzimidazol-5-ylamino]-4-[(R)-1-(3-methoxyphenyl)ethyl-amino]cyclobut-3-ene-1,2-dione] it was greater than 1000 nM. In the case of `NS(=O)(=O)c1ccccc1CNc1c(Nc2ccc3[nH]cnc3c2)c(=O)c1=O` [Compound A155, 3-(1H-benzimidazol-5-ylamino)-4-(2-amino-sulfonylbenzylamino)cyclobut-3-ene-1,2-dione] it was greater than 1000 nM; in that of `O=c1c(NCc2cccc(O)c2)c(Nc2cc(Cl)c3[nH]cnc3c2)c1=O` [Compound A118, 3-(7-chloro-1H-benzimidazol-5-ylamino)-4-(3-hydroxybenzylamino)cyclobut-3-ene-1,2-dione], less than 1000 nM; in that of `CCCCc1c(Nc2c(NCc3cccc(O)c3)c(=O)c2=O)ccc2[nH]cnc12` [Compound A111, 3-(4-butyl-1H-benzimidazol-5-ylamino)-4-(3-hydroxybenzylamino)cyclobut-3-ene-1,2-dione], greater than 1000 nM. In the case of “3-[3-(2-methoxyethyl)-3H-benzimidazol-5-ylamino]-4-[(R)-1-(3-methoxyphenyl)ethyl-amino]cyclobut-3-ene-1,2-dione [Compound A67]”, the 50% inhibitory concentration (IC50) was greater than 1000 nM.

As to `CN(C)CCNC(=O)CC(Nc1c(Nc2ccc3[nH]cnc3c2)c(=O)c1=O)c1cccc(O)c1` (stereo not drawn) [Compound A113, 3-[2-(1H-benzimidazol-5-ylamino)-3,4-dioxo-cyclobut-1-enylamino]-N-(2-dimethylamino-ethyl)-3-(3-hydroxyphenyl)propionamide], the IC50 is greater than 1000 nM. In turn, `CNS(=O)(=O)c1cccc(CNc2c(Nc3ccc4[nH]cnc4c3)c(=O)c2=O)c1` [Compound A44, 3-(1H-benzimidazol-5-ylamino)-4-[3-(methyl-aminosulfonyl)benzylamino]cyclobut-3-ene-1,2-dione] registered a concentration for half-maximal inhibition (IC50) greater than 1000 nM. Regarding `CCN(CC)c1c(Nc2c(NCc3cccc(O)c3)c(=O)c2=O)cc(C(F)(F)F)c2[nH]cnc12` [Compound A124, 3-(4-diethylamino-7-trifluoromethyl-1H-benzimidazol-5-ylamino)-4-(3-hydroxy-benzylamino)cyclobut-3-ene-1,2-dione], the half-inhibitory concentration (IC50) was greater than 1000 nM.

By IC50 is commonly meant the midpoint of a concentration-inhibition curve.

Source of the values: patent publication US20080234266A1, “Squaric Acid Derivatives II” (priority 2005, published 2008).
